The results in this text go back to patent US20240116891A1, “MARALIXIBAT SOLID FORMS, INTERMEDIATES AND PROCESSES OF MAKING SAME” (MIRUM PHARMACEUTICALS, INC., priority 2022, published 2024).

Some results are limits rather than exact numbers.

Holding throughout (type): physicochemical
A short description of series [1]: Characterization of anhydrate Form II of compound of Formula III. The protocol: Anhydrate Form II of compound of Formula III was characterized by XRPD, TGA, DSC and HPLC. As shown in XRPD result (FIG. 11), the sample was crystalline and conformed to Form II. Its HPLC purity was determined to be 99.78 area %. […] (onset temperature) in DSC were observed. […] Form II is the stable form of compound of Formula III.

Series [2] is described as follows: Polymorph screening (stability of solid forms). To be noted: for Relative stability of solid form in polymorph screening: under the conditions tested in this study. The protocol: Form B was obtained from anti-solvent addition experiment with ACN/water from Form A. Form B was observed only as a wet cake, which convers back to Form A when air-dried. The XRPD, TGA/DSC, and PLM characterizations with the same parameters described above were performed. […] (FIG. 5). The weight loss started immediately with heat applied and it stopped 75° C.
(§1) The approximate solubility of compound of Formula I (starting material, prepared as described above) was measured at RT in 20 different solvents. Approximately 2 mg of starting material were added into a 3-mL glass vial. Solvents were then added step wise into the vials until the solids were dissolved or a total volume of 1 mL was reached (Note: this is not thermodynamic solubility estimation, vortex and sonication were applied in between each solvent to accelerate the dissolution). Results summarized in Table 3-1 were used to guide the solvent selection for the polymorph screening. Beginning with the starting material, polymorph screening experiments were set up using methods of Slurry at different temperatures, Slow Cooling, Liquid and Solid Vapor Diffusion, Slow Evaporation, Anti-Solvent Addition and Ionic Liquid. The methods utilized, and crystal forms identified are summarized in Table 3-2 (Type A and Form A are used interchangeably and Type B and Form B are used interchangeably).
As described above, polymorph screening experiments were set up using methods of Slurry at different temperatures, Slow Cooling, Liquid and Solid Vapor Diffusion, Slow Evaporation, Anti-Solvent Addition, and Ionic Liquid. Two types, Form A (anhydrate) and Form B (weak solvate) were obtained from the experiments.
Further investigation was performed for Form B to better understand the phase origin.
Other than Form B (i.e., Type B), no additional polymorph was observed during the rest of the screening. […]
The approximate solubility of compound of Formula II (starting material) was determined at RT in 20 different solvents. […]
The molecular structure was determined by single crystal X-ray diffraction.

The nature of series [3]: Wet cake drying study on compound of Formula II. The protocol: The wet cake drying study on compound of Formula II was carried out on a sample (98.67% purity of compound of Formula II) in an open dish held at 40° C. under vacuum. The sample was analyzed after one week (98.79% purity of compound of Formula II) and since the sample was stable, the study was extended another month. […] (98.74% purity of compound of Formula II).

Series [4] is described as follows: Approximate solubility of starting material at RT in 20 solvents. As to the method:
as §1
The approximate solubility of compound of Formula II (starting material) was determined at RT in 20 different solvents. Approximately 2 mg of the material were added into a 2-mL glass vial. Solvents were then added step into the vials until the solids were dissolved or a total volume of 1 mL was reached (Note: this is not a thermodynamic solubility estimation; vortex and sonication were applied in between each solvent addition to accelerate the dissolution). Results summarized in Table 5-1 were used to guide the solvent selection for the polymorph screening. Beginning with the starting material, polymorph screening experiments were set up using methods of Slurry at different temperatures, Slow Cooling, Liquid and Solid Vapor Diffusions, Slow Evaporation, Anti-Solvent Addition, and Ionic Liquid. No new polymorphs were observed during the screening. Type X and Form X are used interchangeably.

Series [5] can be described thus: Long-term stability study of compound of Formula I, 25° C./60% RH. As to the method: Long-term and accelerated stability studies were performed as below using the compound of Formula I prepared as described in Example 2.1.
Tests include appearance, purity by HPLC, assay by HPLC, chiral purity by HPLC, and water by KF titration. […]

Series [6] is described as follows: DVS test of compound of Formula I.
A short description of series [7]: Heat and light stressed stability of compound of Formula I in 95/5 (v/v) acetonitrile/isopropanol solution. The following applies: for Purity, Chemical / Purity, Chiral: solution. As to the method: In addition, the stressed stability in 95/5 (v/v) acetonitrile /isopropanol solutions was also evaluated (e.g., during the SMB separation and successive work-up). Samples were stored under two different conditions over a period of 10 days: exposed to light at room temperature and in an oven at 60° C.

Where [8] appears, read: organic solvent or mixture, ACN.
The mark [9] stands for this setting: organic solvent or mixture, Acetone.
The mark [10] stands for this setting: organic solvent or mixture, Cyclohexane.
Where [11] appears, read: organic solvent or mixture, DCM.
Where [12] appears, read: organic solvent or mixture, DMF.
Setting [13] is: organic solvent or mixture, DMSO.
The mark [14] stands for this setting: organic solvent or mixture, EtOAc.
Where [15] appears, read: organic solvent or mixture, EtOH.
Where [16] appears, read: organic solvent or mixture, IPA.
Where [17] appears, read: organic solvent or mixture, IPAc.
The mark [18] stands for this setting: organic solvent or mixture, MIBK.
Setting [19] is: organic solvent or mixture, MTBE.
The mark [20] stands for this setting: organic solvent or mixture, MeOH.
The mark [21] stands for this setting: organic solvent or mixture, MeTHF.
Setting [22] is: organic solvent or mixture, NMP.
[23] abbreviates: organic solvent or mixture, Pentane.
Where [24] appears, read: organic solvent or mixture, Toluene.
Setting [25] is: organic solvent or mixture, n-Butyl Acetate.
Where [26] appears, read: organic solvent or mixture, n-Heptane.

`CCCCC1(CCCC)CS(=O)(=O)c2ccc(N(C)C)cc2[C@@H](c2ccc(OCc3ccc(C[N+]45CCN(CC4)CC5)cc3)cc2)[C@H]1O.[Cl-]` [Form II, 1-(4-((4-((4R,5R)-3,3-dibutyl-7-(dimethylamino)-4-hydroxy-1,1-dioxido-2,3,4,5-tetrahydrobenzo[b]thiepin-5-yl)phenoxy)methyl)benzyl)-1,4-diazabicyclo[2.2.2] octan-1-ium chloride]: the “Stability of solid form” value in series [1] is “stable form”.
`CCCCC1(CCCC)CS(=O)(=O)c2ccc(N(C)C)cc2[C@@H](c2ccc(OC)cc2)[C@H]1O` [Form A, (4R,5R)-3,3-dibutyl-7-(dimethylamino)-4-hydroxy-5-(4-methoxyphenyl)-2,3,4,5-tetrahydrobenzo[b]thiepine 1,1-dioxide]: in series [2], the “Relative stability of solid form in polymorph screening” value is given as “most stable form”.
In the case of `CCCCC1(CCCC)CS(=O)(=O)c2ccc(N(C)C)cc2[C@@H](c2ccc(OC)cc2)[C@H]1O` [Form B, (4R,5R)-3,3-dibutyl-7-(dimethylamino)-4-hydroxy-5-(4-methoxyphenyl)-2,3,4,5-tetrahydrobenzo[b]thiepine 1,1-dioxide], the “Solid form after air-drying of the wet cake (XRPD)” value in series [2] (air-dried overnight) was “converted back to Form A”.
Regarding `CCCCC1(CCCC)CS(=O)(=O)c2ccc(N(C)C)cc2[C@@H](c2ccc(O)cc2)[C@H]1O` [Formula II, (4R,5R)-3,3-dibutyl-7-(dimethylamino)-4-hydroxy-5-(4-hydroxyphenyl)-2,3,4,5-tetrahydrobenzo[b]thiepine 1,1-dioxide], the “Purity of compound of Formula II” value turned out to be 98.79% in series [3] (open dish, 40° C. under vacuum, after one week); 98.74% in series [3] (open dish, 40° C. under vacuum, study extended another month); 98.67% in series [3] (wet cake sample at start of study). The “Hold time of the solid” value in series [3] (under vacuum at 40° C.) is reported as “at least a month”. Besides, the solubility – broadly, the concentration that dissolves in the medium under given conditions – is 2.9 to 9.7 mg/mL in series [4] (setting [8]); 26 to 52 mg/mL in series [4] (setting [9]); below 2 mg/mL in series [4] (setting [10]); 8.7 to 26 mg/mL in series [4] (setting [11]); above 40 mg/mL in series [4] (setting [12]); above 44 mg/mL in series [4] (setting [13]). Moreover, the solubility lay in the range of 20 to 40 mg/mL in series [4] (setting [14]); 2.7 to 9.3 mg/mL in series [4] (setting [15]); 2.6 to 8.7 mg/mL in series [4] (setting [16]); 7.7 to 23 mg/mL in series [4] (setting [17]); 21 to 43 mg/mL in series [4] (setting [18]); 2.4 to 8 mg/mL in series [4] (setting [19]). In addition, the solubility in series [4] (setting [20]) was 7.3 to 22 mg/mL; in series [4] (setting [21]) it was 21 to 42 mg/mL; in series [4] (setting [22]), above 44 mg/mL; in series [4] (setting [23]) it was below 2.7 mg/mL; in series [4] (setting [24]), below 2.8 mg/mL; in series [4] (setting [25]), 8.3 to 25 mg/mL. Further, the solubility in series [4] (setting [26]) was below 2 mg/mL; in series [4] (water, H2O), below 2 mg/mL.
Take `CCCCC1(CCCC)CS(=O)(=O)c2ccc(N(C)C)cc2[C@@H](c2ccc(O)cc2)[C@H]1O` [Form X, (4R,5R)-3,3-dibutyl-7-(dimethylamino)-4-hydroxy-5-(4-hydroxyphenyl)-2,3,4,5-tetrahydrobenzo[b]thiepine 1,1-dioxide]: in series [2], the “Relative stability of solid form in polymorph screening” value was “most stable form”.
In the case of `CCCCC1(CCCC)CS(=O)(=O)c2ccc(N(C)C)cc2[C@@H](c2ccc(OC)cc2)[C@H]1O` [Formula I, (4R,5R)-3,3-dibutyl-7-(dimethylamino)-4-hydroxy-5-(4-methoxyphenyl)-2,3,4,5-tetrahydrobenzo[b]thiepine 1,1-dioxide], the “Appearance (Color, morphology)” value in series [5] (0 months), in series [5] (3 months), in series [5] (6 months) and in series [5] (12 months) was “Off-white” throughout. Further, the “HPLC Assay” value in series [5] (0 months) is reported as 95.5% w/w; in series [5] (3 months) it was 96.3% w/w; in series [5] (6 months) it was 96.4% w/w; in series [5] (12 months) it was 96.5% w/w. Besides, the “HPLC Purity” value in series [5] (0 months) stood at 99.6% a/a; in series [5] (3 months) it was 99.9% a/a; in series [5] (6 months) it was 99.8% a/a; in series [5] (12 months), 99.8% a/a. In addition, the “HPLC Purity - Chiral” value in series [5] (0 months), in series [5] (3 months), in series [5] (6 months) and in series [5] (12 months) was 100.0% a/a throughout. Also, the “Water by KF Titration” value in series [5] (0 months), in series [5] (3 months), in series [5] (6 months) and in series [5] (12 months) was below 0.1% w/w in each case. Further, the solubility is above 44 mg/mL in series [4] (setting [8]); above 54 mg/mL in series [4] (setting [9]); below 2 mg/mL in series [4] (setting [10]); above 58 mg/mL in series [4] (setting [11]); above 48 mg/mL in series [4] (setting [12]); above 50 mg/mL in series [4] (setting [13]). Further, the solubility in series [4] (setting [14]) was above 40 mg/mL; in series [4] (setting [15]), 27 to 54 mg/mL; in series [4] (setting [16]), 7.3 to 22 mg/mL; in series [4] (setting [17]) it was 24 to 48 mg/mL; in series [4] (setting [18]), above 50 mg/mL; in series [4] (setting [19]) it was 9.3 to 28 mg/mL. Moreover, the solubility in series [4] (setting [20]) is 29 to 58 mg/mL; in series [4] (setting [21]) it was above 56 mg/mL; in series [4] (setting [22]), above 46 mg/mL; in series [4] (setting [23]), below 2.7 mg/mL; in series [4] (setting [24]), above 54 mg/mL; in series [4] (setting [25]), above 56 mg/mL. The solubility in series [4] (setting [26]) was below 2.8 mg/mL; in series [4] (water, H2O), below 2.3 mg/mL. For the same molecule, in series [6], the “Form transition before and after DVS test” value is on record as “no form transition observed”. Moreover, in series [6], the “Hygroscopicity by DVS” value was “Non-hygroscopic”. Besides, the “Stability (chemical and chiral purity) for SMB operation and work-up” value in series [7] (95/5 (v/v) acetonitrile/isopropanol, 10 days, light at RT or 60° C.) is on record as “adequate stability”. The “Purity, Chemical” value in series [7] (RT (light), Day 0) is on record as 99.4 % a/a; in series [7] (RT (light), Day 3), 99.4 % a/a; in series [7] (RT (light), Day 7), 99.4 % a/a; in series [7] (RT (light), Day 10) it was 99.4 % a/a; in series [7] (T = 60° C., Day 0), 99.3 % a/a; in series [7] (T = 60° C., Day 3), 98.7 % a/a. Besides, the “Purity, Chemical” value came out at 98.5 % a/a in series [7] (T = 60° C., Day 7) and 98.5 % a/a in series [7] (T = 60° C., Day 10). Moreover, the “Purity, Chiral” value was 99.6 % a/a in series [7] (RT (light), Day 0); 99.6 % a/a in series [7] (RT (light), Day 3); 99.7 % a/a in series [7] (RT (light), Day 7); 99.4 % a/a in series [7] (RT (light), Day 10); 99.7 % a/a in series [7] (T = 60° C., Day 0); 99.5 % a/a in series [7] (T = 60° C., Day 3). Also, the “Purity, Chiral” value is 99.8 % a/a in series [7] (T = 60° C., Day 7) and 99.7 % a/a in series [7] (T = 60° C., Day 10).
